According to US12534474B2, “Dihydrofuropyridine derivatives as rho-kinase inhibitors” (CHIESI FARMACEUTICI S.P.A., priority 2020, dated 2026):

Key:
Assay type in all cases: biochemical
[1] = target: PKA (Homo sapiens, UniProt P17612); assay: In vitro inhibitory activity assay for PKA, ADP-Glo, reported as selectivity ratio vs ROCK2; settings: Ki for PKA divided by Ki of ROCK2 (Method B)
Summary of the method: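 PKA preincubated 30 min with compound (1% DMSO), then reacted 30 min at 25 °C with 10 μM ATP and 260 μM kemptide in Tris pH7.5/MgCl2/BSA/DTT; ADP-Glo luminescence. IC50 from constrained sigmoidal fit, converted to Ki by Cheng-Prusoff; value given as Ki(PKA)/Ki(ROCK2, Method B).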

[2] = target: T1, ROCK1 (Homo sapiens, UniProt Q13464); assay: In vitro Rho kinase inhibitory activity assay, ADP-Glo, Method B (ATP 200 μM); settings: read-out: Method B ROCK 1 (Ki)
Summary of the method: (§1)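 Enzyme preincubated 30 min with compound in 40 mM Tris pH 7.5, 20 mM MgCl2, 0.1 mg/mL BSA, 50 μM DTT, 2.5 μM myelin basic protein, 1% DMSO, 25 °C; 1 h reaction at 200 μM ATP. ADP-Glo luminescence; IC50 from variable-slope sigmoidal fit (0–100% fixed), Ki via Cheng-Prusoff.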

[3] = target: T2, ROCK2 (Homo sapiens, UniProt O75116); assay: as above; settings: read-out: Method B ROCK 2 (Ki)
Summary of the method: as §1

[4] = target: T1, ROCK1; assay: In vitro Rho kinase inhibitory activity assay, ADP-Glo, Method A (ATP 10 μM); settings: read-out: Method A ROCK 1 (Ki)
Method: (§2) In Vitro Inhibitory Activity Assay Description (Method A)
(§3) The effectiveness of compounds of the present invention to inhibit Rho kinase activity can be determined in a 10 μL assay containing 40 mM Tris pH7.5, 20 mM MgCl2 0.1 mg/mL BSA, 50 μM DTT and 2.5 μM peptide substrate (Myelin Basic Protein) using an ADP-Glo kit (Promega). Compounds were dissolved in DMSO such that the final concentration of DMSO was 1% in the assay. All reactions/incubations are performed at 25° C. Compound (2 μL) and either Rho kinase 1 or 2 (4 μL) were mixed and incubated for 30 min. Reactions were initiated by addition of ATP (4 μL) such that the final concentration of ATP in the assay was 10 μM. After a 1 hour incubation 10 μL of ADP-Glo Reagent was added and after a further 45 minute incubation 20 μL of Kinase Detection Buffer was added and the mixture incubated for a further 30 minutes. The luminescent signal was measured on a luminometer. […] Compounds were tested in dose-response format and the inhibition of kinase activity was calculated at each concentration of compound. To determine the IC50 (concentration of compound required to inhibit 50% of the enzyme activity) data were fit to a plot of % inhibition vs Log10 compound concentration using a sigmoidal fit with a variable slope and fixing the maximum to 100% and the minimum to 0%. To determine the Ki values the Cheng-Prusoff equation was utilized (Ki=IC50/(1+[S]/Km).

[5] = target: T2, ROCK2; assay: as above; settings: read-out: Method A ROCK 2 (Ki)
Method: as §2, §3

T1 sequence (Q13464 whole entry): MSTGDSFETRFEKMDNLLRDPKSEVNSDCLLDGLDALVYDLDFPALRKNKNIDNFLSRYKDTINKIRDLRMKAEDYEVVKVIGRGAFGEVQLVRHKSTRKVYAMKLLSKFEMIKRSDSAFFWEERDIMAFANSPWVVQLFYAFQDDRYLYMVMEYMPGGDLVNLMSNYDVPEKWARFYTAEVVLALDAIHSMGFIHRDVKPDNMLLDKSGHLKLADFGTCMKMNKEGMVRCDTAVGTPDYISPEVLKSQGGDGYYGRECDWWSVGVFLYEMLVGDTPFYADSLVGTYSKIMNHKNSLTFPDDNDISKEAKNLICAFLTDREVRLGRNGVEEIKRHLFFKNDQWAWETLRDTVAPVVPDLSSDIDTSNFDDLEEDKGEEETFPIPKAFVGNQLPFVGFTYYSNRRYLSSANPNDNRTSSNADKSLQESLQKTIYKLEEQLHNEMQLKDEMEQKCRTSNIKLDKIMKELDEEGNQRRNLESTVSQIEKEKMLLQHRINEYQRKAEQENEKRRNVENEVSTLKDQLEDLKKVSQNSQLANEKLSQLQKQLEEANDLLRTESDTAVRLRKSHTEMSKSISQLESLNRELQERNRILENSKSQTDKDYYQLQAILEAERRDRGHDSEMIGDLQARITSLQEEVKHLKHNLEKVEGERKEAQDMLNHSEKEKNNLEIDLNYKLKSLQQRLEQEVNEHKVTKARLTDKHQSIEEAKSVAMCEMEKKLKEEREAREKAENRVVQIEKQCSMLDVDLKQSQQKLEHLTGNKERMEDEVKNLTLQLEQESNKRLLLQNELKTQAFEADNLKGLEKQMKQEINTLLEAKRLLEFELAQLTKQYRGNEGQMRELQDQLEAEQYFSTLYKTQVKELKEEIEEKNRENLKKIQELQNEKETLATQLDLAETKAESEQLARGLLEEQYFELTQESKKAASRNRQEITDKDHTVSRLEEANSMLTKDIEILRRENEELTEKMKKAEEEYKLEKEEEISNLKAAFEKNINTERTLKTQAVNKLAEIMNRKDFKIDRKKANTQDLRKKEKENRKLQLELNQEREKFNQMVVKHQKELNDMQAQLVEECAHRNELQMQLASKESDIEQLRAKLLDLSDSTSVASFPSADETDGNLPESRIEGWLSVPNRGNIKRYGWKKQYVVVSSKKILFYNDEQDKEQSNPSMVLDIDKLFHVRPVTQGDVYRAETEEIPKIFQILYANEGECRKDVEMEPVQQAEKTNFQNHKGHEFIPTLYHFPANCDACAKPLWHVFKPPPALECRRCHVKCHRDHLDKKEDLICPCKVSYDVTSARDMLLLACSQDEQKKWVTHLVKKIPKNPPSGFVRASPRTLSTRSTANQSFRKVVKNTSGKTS
T2 sequence (O75116 whole entry): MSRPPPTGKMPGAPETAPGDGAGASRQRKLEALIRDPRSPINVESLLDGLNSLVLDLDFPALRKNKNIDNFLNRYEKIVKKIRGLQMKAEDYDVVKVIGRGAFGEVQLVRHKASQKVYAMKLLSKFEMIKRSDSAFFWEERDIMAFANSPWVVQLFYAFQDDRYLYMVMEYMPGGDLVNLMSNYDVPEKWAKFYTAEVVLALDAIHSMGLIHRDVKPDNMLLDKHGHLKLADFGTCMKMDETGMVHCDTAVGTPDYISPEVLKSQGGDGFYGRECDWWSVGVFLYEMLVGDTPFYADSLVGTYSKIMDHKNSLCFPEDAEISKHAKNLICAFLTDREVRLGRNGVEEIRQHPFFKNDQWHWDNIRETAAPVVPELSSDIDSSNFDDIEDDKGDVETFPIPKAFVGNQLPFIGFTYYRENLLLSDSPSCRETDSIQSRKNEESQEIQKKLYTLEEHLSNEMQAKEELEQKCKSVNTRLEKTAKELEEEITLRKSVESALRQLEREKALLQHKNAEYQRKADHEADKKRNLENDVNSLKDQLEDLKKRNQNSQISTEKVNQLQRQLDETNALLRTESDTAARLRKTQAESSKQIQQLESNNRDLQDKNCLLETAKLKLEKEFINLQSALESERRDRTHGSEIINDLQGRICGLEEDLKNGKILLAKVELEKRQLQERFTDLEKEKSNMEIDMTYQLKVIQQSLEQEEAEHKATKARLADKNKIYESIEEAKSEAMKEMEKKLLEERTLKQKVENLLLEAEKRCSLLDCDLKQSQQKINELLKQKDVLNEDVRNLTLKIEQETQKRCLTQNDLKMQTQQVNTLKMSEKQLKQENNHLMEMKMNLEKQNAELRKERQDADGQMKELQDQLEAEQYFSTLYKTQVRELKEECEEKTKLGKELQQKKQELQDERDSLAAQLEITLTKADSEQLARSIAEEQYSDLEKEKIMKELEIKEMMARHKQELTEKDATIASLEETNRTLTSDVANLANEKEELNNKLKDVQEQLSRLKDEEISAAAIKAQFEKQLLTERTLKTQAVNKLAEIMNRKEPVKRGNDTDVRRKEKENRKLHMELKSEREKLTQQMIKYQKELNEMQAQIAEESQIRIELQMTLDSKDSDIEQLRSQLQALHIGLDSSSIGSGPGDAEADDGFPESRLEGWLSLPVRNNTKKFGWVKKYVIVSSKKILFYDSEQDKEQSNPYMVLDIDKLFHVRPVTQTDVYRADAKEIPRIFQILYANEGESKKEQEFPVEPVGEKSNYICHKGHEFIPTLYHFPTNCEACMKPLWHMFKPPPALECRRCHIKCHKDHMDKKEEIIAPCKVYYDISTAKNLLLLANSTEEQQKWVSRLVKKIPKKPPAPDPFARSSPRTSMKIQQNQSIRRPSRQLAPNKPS

Ratio (PKA/ROCK2) [1] | Ki [2] [nM] | Ki [3] [nM] | Ki [4] [nM] | Ki [5] [nM] | SMILES
*** (ratio≥10) | ≤ 3 | ≤ 3 | ≤ 3 | ≤ 3 | O=C(Nc1cccc(CNc2ncc(-c3ccncc3)c3c2CCO3)c1)c1ccc(CN2CCOCC2)cc1 [Example 36, 4-(morpholinomethyl)-N-(3-(((7-(pyridin-4-yl)-2,3-dihydrofuro[3,2-c]pyridin-4-yl)amino)methyl)phenyl)benzamide]
*** (ratio≥10) | ≤ 3 | ≤ 3 | ≤ 3 | ≤ 3 | CN1CCc2sc(C(=O)Nc3cccc(CNc4ncc(-c5ccncc5)c5c4CCO5)c3)nc2C1 [Example 54, 5-methyl-N-(3-(((7-(pyridin-4-yl)-2,3-dihydrofuro[3,2-c]pyridin-4-yl)amino)methyl)phenyl)-4,5,6,7-tetrahydrothiazolo[4,5-c]pyridine-2-carboxamide]
* (ratio<5) | > 30 | > 30 | > 30 | > 30 | c1ccc(CNc2ncc(-c3ccncc3)c3c2CCO3)cc1 [Example A, N-Benzyl-7-(pyridin-4-yl)-2,3-dihydrofuro[3,2-c]pyridin-4-amine, reference compound]
